Measured values from patent publication US10577399B2, “Modified lantibiotics and methods of making and using the modified lantibiotics” (priority 2016, dated 2020).
No end group written: not given here.

Experiments:
S. pneumoniae AI14 = test: MIC against clinical S. pneumoniae isolate AI14; type: cell-based, Streptococcus pneumoniae; settings: 50% blood added
Description: (§1) Minimum Inhibitory Concentrations (MICs) were determined according to previously published protocol^31. A stock solution of the antibiotics tested was first suspended in 50% acetonitrile (ACN) at a concentration 640 μg/mL. This stock was subsequently diluted 2-fold until a final concentration 0.156 μg/mL was reached. Subsequently, 10 μl of each dilution was placed into a well on a 96 well microtiter plate. M. luteus ATCC 10240, S. pneumoniae, and B. subtilis PY79 were grown overnight in THyex at 37° C. Cultures were diluted in the morning to 0.1 OD600 and allowed to grow to 0.6 OD600. This culture was diluted a 100-fold in fresh THyex media and then 400 μl of this culture was added to 10 mL of fresh THyex. The suspension contains approximately 10^5 colony forming units (CFUs). The bacterial suspension (190 μL) was added to each well containing 10 μL of antibiotic suspension or solvent blank. […] Following the 15 minute pretreatment, 190 μL was added to each well as described above. The MIC is described as the […] concentration of antibiotic that prevented visible growth after 24 hours.
(§2) Selective activity and stability of analogs: Several core peptide mutants are provided that have improved activity against our ATCC strain of S. pneumoniae. […]

S. pneumoniae AI17 = test: MIC against clinical S. pneumoniae isolate AI17; type: cell-based, Streptococcus pneumoniae; settings: 50% blood added
Description: as §1, §2

M. luteus ATCC 10240 [1] = test: Deferred antagonism (overlay) assay, zone of inhibition; type: cell-based, Micrococcus luteus; settings: relative to wild-type strain
Description: The deferred antagonism assay was performed as previously described^39. S. mutans strains were grown overnight in THyex broth at 37° C. The cultures were diluted to 0.1 OD OD600 and grown to mid-logarithmic phase before diluting to 0.05 OD600. Then, 2 μl of the cultures were spotted on THyex plates in duplicates of triplicates. The wild-type S. mutans JH1140 and S. mutans ΔmutA were used as positive and negative controls for activity, respectively. The plates were incubated for 18 hours in a candle jar at 37° C. After incubation, the strains were heat killed at 65° C. for 90 minutes. Fresh M. luteus grown overnight at 37° C. on THyex plates were used to inoculate pre-warmed THyex broth. The culture was grown to 0.6 to 0.8 OD before diluting to 0.2 OD600. The culture was further diluted 25-fold in melted (42° C.) THyex top agar. Approximately 5 mL of the top agar solution was spread on the heat killed bioassay plates and allowed to cool for 10 minutes. The plates were then placed in the incubator (at 37° C.) for 18 hours.
Streptococcus mutans ATCC 55676 (wild-type) and the mutants that were at an OD600 of 0.2 were spotted in triplicates on a pre-warmed THyex agar plate (150×15 mm) and allowed to dry. This assay was performed in this manner to ensure that each sample had the same colony size for comparing zones of inhibition. The plate was incubated for 24 hours then placed in an oven at 50° C. for thirty minutes to kill the bacteria before the indicator strain was overlaid. Heat killing the bacteria prevents any further antimicrobial compound production so that results seen are from single day incubation. Zone diameter was measured in millimeters across the plate and compared to wild-type (i.e. zone I for ATCC compared to zone I of Trp4Ala, etc.).

S. pneumoniae ATCC 27336 = type: cell-based, Streptococcus pneumoniae; settings: Table 11
Description: as §1, with “hours. […]” for “hours.”

C. accolens ATCC 49725 = test: MIC/MLC assay against C. accolens ATCC 49725; type: cell-based; settings: THyex broth with 1% Tween 80
S. pneumoniae AI8 = test: MIC against clinical S. pneumoniae isolate AI8; type: cell-based, Streptococcus pneumoniae; settings: 50% blood added
Description: as §1, §2

M. luteus ATCC 10240 [2] = type: cell-based, Micrococcus luteus; settings: Table 11
Description: as §1
FIG. 11 illustrates the bioactivity of various core peptide mutants of mutacin 1130. The activity of the core mutant peptides is expressed as a ratio of the area of the zone of inhibition of each mutant strain to the area of the zone of inhibition of the wild-type strain against indicator strain of Micrococcus luteus. […] The deferred antagonism assay is an overlay assay of the indicator strain onto plates containing heat killed colonies of the mutacin producer strain after growing overnight. Core peptide mutants having inhibitory activity were isolated and the purified products were further evaluated by a standard minimum inhibitory concentration (MIC) assay.

S. aureus ATCC 25923 = test: MIC/MLC assay against S. aureus; type: cell-based, Staphylococcus aureus; settings: Table 11
C. accolens KPL 1818 = test: MIC/MLC assay against C. accolens KPL 1818; type: cell-based; settings: THyex broth with 1% Tween 80
S. pneumoniae AI11 = test: MIC against clinical S. pneumoniae isolate AI11; type: cell-based, Streptococcus pneumoniae; settings: 50% blood added
Description: as §1, §2

S. pneumoniae AI16 = test: MIC against clinical S. pneumoniae isolate AI16; type: cell-based, Streptococcus pneumoniae; settings: 50% blood added
Description: as §1, §2

B. subtilis PY79 cells = test: Confocal microscopy localization of fluorescein labeled peptides; type: cell-based, Bacillus subtilis; settings: 10 μg/mL, 15 minutes
Description: B. subtilis PY79 was grown and treated with fluorescein labeled peptide as previously described^39. A fresh plate of B. subtilis was used to inoculate THyex broth and incubated approximately 16 hours at 37° C. The culture was diluted 20-fold and placed back in the incubator for 3 hours at 37° C. Then, 100 μl of the culture was incubated with the antibiotic (10 μg/mL) for 15 minutes. The cells were pelleted and resuspended in 100 μl of phosphate buffer solution (PBS). The wash step was repeated three times before fixing with 1.6% formaldehyde in PBS. After fixation the cells were washed with PBS three more times and the remaining pellet was suspended in 50 μL of PBS. The sample (30 μL) was added to a slide and observed using an Olympus confocal microscope with a 100×/0.90 dry objective. A 488 nm argon laser was used to excite the fluorophore. For the competition assay, the bacterial culture was initially incubated with mu1140-COOH or native mutacin 1140 at a concentration of 10 μg/mL for 15 minutes, washed, and resuspended in fresh media. 10 μg/mL of fluorescein labeled nisin was then added for 15 minutes, before following the wash protocol previously stated.

| Substance | MIC S. pneumoniae AI14 (S. pneumoniae AI14) | MIC S. pneumoniae AI17 (S. pneumoniae AI17) | zone of inhibition / inhibitory activity in deferred antagonism assay (M. luteus ATCC 10240 [1]) | S. pneumonia ATCC 27336 MIC (S. pneumoniae ATCC 27336) | S. pneumonia ATCC 27336 MLC (S. pneumoniae ATCC 27336) | C. accolens ATCC 49725 MIC (C. accolens ATCC 49725) | C. accolens ATCC 49725 MLC (C. accolens ATCC 49725) | MIC S. pneumoniae AI8 (S. pneumoniae AI8) | M. luteus ATCC 10240 MIC (M. luteus ATCC 10240 [2]) | M. luteus ATCC 10240 MLC (M. luteus ATCC 10240 [2]) | S. aureus ATCC 25923 MIC (S. aureus ATCC 25923) | S. aureus ATCC 25923 MLC (S. aureus ATCC 25923) | C. accolens KPL 1818 MIC (C. accolens KPL 1818) | C. accolens KPL 1818 MLC (C. accolens KPL 1818) | MIC S. pneumoniae AI11 (S. pneumoniae AI11) | MIC S. pneumoniae AI16 (S. pneumoniae AI16) | in vivo localization pattern of fluorescein labeled peptide (B. subtilis PY79 cells) | in vivo localization pattern of fluorescein labeled peptide (B. subtilis PY79 cells; listed as Fluorescein conjugated nisin) |
| --- | --- | --- | --- | --- | --- | --- | --- | --- | --- | --- | --- | --- | --- | --- | --- | --- | --- | --- |
| T14A: core peptide mutant of mutacin 1140, Threonine 14 replaced by Alanine (FKSWSLCTPGCARAGSFNSYCC; UniProt O68586 42-63, looked up, variant T14A) [Mutant T14A] | 2 micrograms per milliliter | 8 micrograms per milliliter | no change in activity | 0.5 micrograms per milliliter | 0.5 micrograms per milliliter | 0.25 micrograms per milliliter | 0.25 micrograms per milliliter | 8 micrograms per milliliter | 0.125 micrograms per milliliter | 0.125 micrograms per milliliter | 8 micrograms per milliliter | 16 micrograms per milliliter | 0.5 micrograms per milliliter | 2 micrograms per milliliter | 4 micrograms per milliliter | 8 micrograms per milliliter | – | – |
| fluorescein labeled nisin: nisin containing a C-terminal conjugate of fluorescein (ITSISLCTPGCKTGALMGCNMKTATCHCSIHVSK-fluorescein; ends and bridges not checked; also: lantibiotic thioether (lanthionine) rings and dehydrated residues, places not given here; UniProt P13068 24-57, looked up) | – | – | – | – | – | – | – | – | – | – | – | – | – | – | – | – | large green patches on the cell surface | binds and abducts lipid II to form patches |
| T14G: core peptide mutant of mutacin 1140, Threonine 14 replaced by Glycine (FKSWSLCTPGCARGGSFNSYCC; not fully specified; ends and bridges not checked; UniProt O68586 42-63, looked up, variant T14G) [Mutant T14G] | 1 micrograms per milliliter | 8 micrograms per milliliter | – | 0.5 micrograms per milliliter | 0.5 micrograms per milliliter | 0.0625 micrograms per milliliter | 0.0625 micrograms per milliliter | 8 micrograms per milliliter | 0.0625 micrograms per milliliter | 0.0625 micrograms per milliliter | >32 micrograms per milliliter | >32 micrograms per milliliter | 0.25 micrograms per milliliter | 0.5 micrograms per milliliter | 2 micrograms per milliliter | 8 micrograms per milliliter | – | – |
